Assay results as given in patent publication US6790951B1, “Expression system in microorganism and its use for expressing heterologous and homologous proteins” (priority 1995, dated 2004).
Ends that are not written are not given here.

How the values were obtained:
[1] = tested on: Lactobacillus sake LTH673; assay: Induction or maintenance of bacteriocin (sakacin P) production, inducing-peptide production and immunity in Lactobacillus sake LTH673 cultures; type: cell-based; conditions: for induction of immunity to sakacin P / induction of production of the inducing peptide itself: added to Bac- Lactobacillus sake LTH673 cells; for induction of bacteriocin (sakacin P) production: added to Bac- Lactobacillus sake LTH673 cultures
Description: This bacteriocin was later shown to be sakacin P (ref. 8). Bacterial cultures obtained by inoculating MRS medium (Difco Laboratories, Detroit, Mich., USA; or Oxoid ltd. Basingstoke, Hampshire, England) with material from this glycerol-stock produced sakacin P (Bac^+ phenotype) and, accordingly, were immune to purified sakacin P.
(§1) The Bac^+ phenotype of cells in this bacterial culture was lost upon diluting a Bac^+ LTH673 culture more than ˜2000-fold in fresh MRS-medium. […] Loss of the Bac^+ phenotype upon dilution or plating could be prevented by adding supernatant of an overnight Bac^+ LTH673 culture at an end concentration of minimally 0.05% (v/v). […] Colonies obtained after plating cells from a Bac^− culture in the presence of supernatant from a Bac^+ culture all were Bac^+.
As indicated above Bac^− colonies of Lactobacillus sake LTH673 were obtained after plating cells from a Bac^+ culture. […] Glycerol stocks of such Bac^− cultures were made and fresh cultures obtained after inoculating MRS medium with an inoculum from such a glycerol stock again were Bac^−. In all cases tested, the only way to restore bacteriocin production was to add supernatant of a Bac^+ culture that thus, apparently, contains an inducing substance.
Lb. sake LTH673 (Bac^+) is immune to purified sakacin P and to several related purified bacteriocins. Immunity is caused by a specific protein that is produced concomitantly with the bacteriocin. Accordingly, we observed that the loss and induction of the Bac^+ phenotype was invariably accompanied by, respectively, the loss and induction of immunity to sakacin P. Another trait invariably linked to changes in the Bac phenotype was the inducing capacity itself: this capacity was only present in supernatants of Bac^+ cultures but not in the supernatants of Bac^− cultures.

[2] = tested on: genes involved in sakacin P production (FIG. 1) in Lactobacillus sake LTH673; assay: Northern blotting of transcripts of the sakacin P genes in Bac- LTH673 cultures after adding the peptide; type: cell-based; conditions: purified or synthetic peptide
Description: 5. In bacteriocin deficient cultures of LTH673, transcription of the genes depicted in FIG. 1 could not be detected (by Northern blotting).
In cultures of Lactobacillus sake LTH673 with the Bac^− phenotype, transcription of the genes depicted in FIG. 1 could not be detected at any stage during growth (by Northern blotting).

[3] = Stability of the inducing component of culture medium to proteinase K and boiling; type: physicochemical
Description: as §1

[4] = tested on: Lactobacillus plantarum C11; assay: Induction of bacteriocin production / gene expression in Lactobacillus plantarum C11; type: cell-based
Experimental: Experiments similar to the ones described in examples 1 and 2 were conducted with the bacteriocin producing strain Lactobacillus plantarum C11. These experiments yielded results that were essentially similar to the results described in examples 1 and 2. The sequence of the amphiphilic inducing peptide for the Lactobacillus plantarum C11 regulatory system is: […](26 residues) (SEQ. ID. NO: 1).
Observations essentially similar to the ones described by examples 1,2, and 4 have been made in relation to bacteriocin production by Lactobacillus plantarum C11. This strain produces a large number of bacteriocins, corresponding immunity proteins, and the 26-residue inducing peptide described in example 3. The corresponding genes have been cloned and sequenced. […] Promoter elements in front of the transcription start-points resemble those found in front of the genes involved in sakacin P production, as indicated in FIG. 4.
A 26-residue peptide (SEQ ID NO:1) with the sequence given in example 3 was synthesized.

Row | Sequence | induction of immunity to sakacin P [1] | induction of production of the inducing peptide itself [1] | induction of immunity to sakacin P ([1]; listed as purified peptide) | induction of production of the inducing peptide itself ([1]; listed as purified peptide) | induction of bacteriocin (sakacin P) production [1] | induction of bacteriocin (sakacin P) production ([1]; listed as purified peptide) | inducing effects of the synthetic peptide compared with Bac+ culture supernatants and the purified peptide ([1]; synthetic peptide, in Lactobacillus sake LTH673) | detection of transcripts of the genes of FIG. 1 [2] | time until transcripts could be detected after adding the peptide [2] [min] | inducing activity after boiling ([3]; boiling for 10 minutes) | inducing activity after proteinase K treatment ([3]; culture medium treated with proteinase K) | induction of gene expression (bacteriocin, immunity and inducing peptide genes) ([4]; Bac- cultures of Lactobacillus plantarum C11) | inducing effects of the synthetic peptide compared with Bac+ culture supernatants and the purified peptide ([4]; synthetic peptide, in Lactobacillus plantarum C11)
1 | MAGNSSNFIHKIKQIFTHR [19-residue peptide, purified or chemically synthesized] | restored | restored | resulted in the induction | resulted in the induction | restored | resulted in the induction | same inducing effects | several transcripts could be detected | ≤ 30 | not after boiling | lost | – | –
2 | KSSAYSLQMGATAIKQVKKLFKKWGW [26-residue inducing peptide] | – | – | – | – | – | – | – | – | – | – | – | gene expression can be induced | same inducing effects
